Target: T1, DUSP9 (Homo sapiens, UniProt Q99956)
T1 construct: made in house; host or cells: Escherichia coli Rosetta (DE3)
T1 sequence (Q99956 1-384): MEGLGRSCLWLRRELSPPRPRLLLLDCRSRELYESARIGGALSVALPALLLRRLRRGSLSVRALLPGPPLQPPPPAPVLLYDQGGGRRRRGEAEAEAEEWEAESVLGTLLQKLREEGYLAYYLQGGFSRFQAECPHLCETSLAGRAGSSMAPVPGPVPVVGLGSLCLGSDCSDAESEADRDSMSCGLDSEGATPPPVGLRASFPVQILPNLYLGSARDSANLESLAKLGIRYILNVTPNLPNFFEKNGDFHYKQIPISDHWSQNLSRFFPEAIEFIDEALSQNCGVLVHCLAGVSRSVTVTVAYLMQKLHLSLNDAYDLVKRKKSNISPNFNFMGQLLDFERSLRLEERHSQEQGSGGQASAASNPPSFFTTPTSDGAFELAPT
Assay: DUSP9 enzyme inhibition with DiFMUP substrate
Type: biochemical
Conditions: DiFMUP 90 µM, DUSP9 200 nM; NA: no activity
Procedure: The purification and kinetic analyses of PTPN9 and DUSP9 (Ser277–581) were performed following methods described in the literature, with slight modifications. PAGE analysis data and enzyme kinetic constants are presented in Figure S1 and Table S1, respectively. Enzyme activity in the presence or absence of the compounds was measured using DiFMUP, a representative PTP fluorogenic substrate. First, the inhibitory effects of compounds 1–3 were evaluated using 50 µM PTPN9 and 20 µM DUSP9. There was an increase in the inhibitory activity of compound 1 for both enzymes as the number of CH2 units increased from 9 to 14 (Figure 2A,B).
Next, the IC50 values of the compounds, which induce a 50% inhibition of DiFMUP hydrolytic enzyme activity, were determined (Table 1). The IC50 values were determined from the dose–response enzyme inhibition curves of each compound. The dose–response curves for compounds 1e and 1f against PTPN9 and DUSP9, respectively, are presented in Figure 2C,D. Dose–response curves were also obtained for the other compounds (Figures S2 and S3).
The methods employed for PTP overexpression and purification have been described in a previous study. In brief, human PTPN9 and DUSP9 were cloned into a pET28a vector (Merk Millipore, Darmstadt, Germany) containing a hexahistidine (His6) tag or a maltose-binding protein (MBP) tag in its N-terminus (see Supplementary Materials). Recombinant genes were separately transformed into Escherichia coli Rosetta (DE3) (Merk Millipore, Darmstadt, Germany), and the overexpression of each gene was induced via the addition of 0.1 mM IPTG (Ducherfa Biochemie, Haarlem, RV, USA). After 16 h of incubation at 18 °C, cell pellets were obtained via centrifugation (3570× g at 4 °C for 15 min), resuspended in lysis buffer (50 mM Tris, pH: 7.5, 500 mM NaCl, 5% glycerol, 0.025% 2-mercaptoethanol, and 1 mM phenyl-methylsulfonyl fluoride (PMSF)), and lysed by ultrasonication. Subsequently, cell lysates were centrifuged at 29,820× g for 30 min at 4 °C; then, the supernatant was collected and incubated with a cobalt affinity resin (TALON® Metal Affinity Resin, Takara Korea, Seoul, Korea). After 1 h of incubation at 4 °C, the desired proteins were eluted by adding the lysis buffer supplemented with 100 mM imidazole. Samples were stored at –80 °C until use.
The enzymatic activities of purified PTPN9 and DUSP9 were measured using 6,8-difluoro-4-methylumbelliferyl phosphate (DiFMUP), the most widely used fluorogenic PTP substrate in the literature. To determine KM values, PTPN9 (0.15 nM) and DUSP9 (200 nM) were added to a reaction buffer (20 mM Bis-tris, pH: 7.0, 150 mM NaCl, 2.5 mM dithiothreitol (DTT), and 0.01% Triton X-100) containing DiFMUP (800, 400, 200, 100, 50, 25, 12.5, or 6.25 μM) in a 96-well black plate. The final reaction volume was 100 µL. The fluorescence intensity was continuously monitored for 10 min (Ex/Em = 355/460 nm) on a Victor™ X4 multilabel plate reader (Perkin Elmer, Norwalk, CT, USA). KM values were obtained using Lineweaver–Burk plots analysis.
To evaluate the enzyme inhibitory effects of GA and its analogs, 10 µl of the enzyme stock solution (1.5 nM PTPN9 and 2 µM DUSP9) in the reaction buffer was added into the mixture of DiFMUP (to a final concentration of 220 µM and 90 µM for PTPN9 and DUSP9, respectively) and each compound (to a final concentration of 50 µM and 20 µM for PTPN9 and DUSP9, respectively) was added to the reaction buffer. Enzyme activity was measured as described above. Half-inhibitory concentration (IC50) values were determined under similar conditions, except for the concentrations of the inhibitors (200, 100, 50, 25, 12.5, 6.25, or 3.125 µM for PTPN9 and 25, 12.5, 6.25, 3.125, 1.563, 0.782, or 0.391 µM for DUSP9). The dose-dependent curve was fitted to the four-parameter logistic regression equation, (y = a + (b – a)/(1 + (x/c)^d), to obtain IC50 values using the Kaleida Graph software Ver. 4.1.3. (Synergy Software Inc, PA, USA).

| SMILES | IC50 [µM] |
| --- | --- |
| CCCCCCCCCCCCCCCOc1cccc(O)c1C(=O)O [Compound 1f] | 5.87 ± 0.55 |
| CCCCCCCCCCCCCOc1cccc(O)c1C(=O)O [Compound 1e] | 6.4 ± 0.87 |

Source: PMC8999917, “Structure–Activity Relationship of Synthetic Ginkgolic Acid Analogs for Treating Type 2 Diabetes by PTPN9 Inhibition” (International Journal of Molecular Sciences, 2022)
